{
  "source": "patent US20140039056A1",
  "about": "“BROMFENAC ORGANIC SALTS AND PREPARATION METHOD, COMPOSITION AND USE THEREOF” (SHENYANG XINGQI PHARMACEUTICAL CO., LTD., priority 2010, published 2014)",
  "key": {"[1]": {"test": "Tissue distribution test (muscle tissue under skin after application to the back)", "conditions": "rats; for Concentration in muscle tissue / concentration at 0 h / concentration at 2 h / concentration at 4 h / concentration at 6 h / concentration at 8 h / concentration at 10 h: n = 3; for time at which distribution in tissue reaches maximum values (peak concentrations): muscle tissue under skin; for concentration distributed in tissue compared with bromfenac sodium: muscle tissue; for concentration at 0 h / concentration at 2 h / concentration at 4 h / concentration at 6 h / concentration at 8 h / concentration at 10 h: rat, 1 g preparation, Concentration in muscle tissue", "method": "Preparation of bromfenac salt solutions: 0.25 g samples of bromfenac sodium, bromfenac diethylamine salt as prepared in Example 1 and bromfenac trometamol salt as prepared in Example 2 were precisely weighed separately, placed in 25 ml volumetric flasks respectively, metered volume to obtain stock solutions for standby use.\nChromatography conditions: detector: ultraviolet absorption detector (wavelength: 266 nm). Chromatography column: octadecyl silica gel column (4.6 mm×150 mm, 5 μm). Mobile phase: precisely weighed ammonium acetate 3.85 g, added with water to the metered volume of 1000 mL. 700 mL of this solution was taken and added with 300 mL acetonitrile. Flow rate: 1.0 mL/min.\nPlotting standard curves: 200 μl samples of blank tissue were taken, separately added with 50 μl of series standard solutions of bromfenac sodium, bromfenac diethylamine salt and bromfenac trometamol salt separately, added with 50 μl of internal standard respectively, to form sample solutions with equivalent tissue concentrations of bromfenac sodium, bromfenac diethylamine salt and bromfenac trometamol salt as 50, 100, 250, 500, 1000, 5000, 10000 ng/ml, which were separately weighed precisely to take 20 μl and injected into chromatography and separately assayed.\n1) On the test day, removed short hair on the back of rats were with a electric hair clipper to expose surface layer of skin, while trying to avoid breaking skin during hair cutting, and then washed unhairing region with a large quantity of water;\n2) anesthetized rats using 10% chloral hydrate in anesthetic agent dose of 3.5 ml/kg;\n3) randomly divided the rats into 3 groups, 15 rats per group. On the unhairing region of back, the rats of 3 groups were separately administered with 1 g of bromfenac sodium, bromfenac diethylamine and Bromfenac trometamol preparations, and the administration regions were covered with freshness-keeping plastic film;\n4) executed rats before administration (0 hours) and at 2 hours, 4 hours, 6 hours, 8 hours, 10 hours after administration, took muscle tissues under skin of administration sites;\n5) simply washed muscle tissues with physiological saline, then absorbed excessive water with filter paper;\n6) precisely weighed 1 g of muscle tissue, cut into pieces, homogenizing with 3 ml of physiological saline in electric grinding mill. A homogeneous muscle tissue homogenate was obtained after muscle tissue was ground completely;\n7) took […] of tissue sample, added with 50 μL of an internal standard solution, mixed homogeneously, added with 1 mL of methanol, mixed by vortex for 1 min, centrifuged for 5 min (3500 rpm), separated and placed upper layer organic phase into another tube, blow-dried with 37° C. air, dissolved the residue by adding 100 μL of mobile phase, mixed by vortex, and took 20 μL to perform HPLC analysis."}, "[2]": {"test": "Chemical stability in solid state (accelerated stability test at 60° C.)", "assay_type": "physicochemical", "conditions": "for change of content in accelerated test at 60° C.: solid state, in words", "method": "HPLC Analysis Conditions:\nDetector: ultraviolet absorption detector (wavelength: 266 nm).\nChromatography column: octadecyl silica gel column (4.0 mm×150 mm, 5 um).\nMobile phase: 3.85 g of ammonium acetate was precisely weighed, added with water to reach the metered volume of 1000 mL."}, "[3]": {"conditions": "analgesic effect; cited from earlier work"}, "[4]": {"conditions": "cited from earlier work"}},
  "note": "Where a name gives a salt, the structure may show the parent alone. Read-outs that look alike come from different tables or passages of the source.",
  "data": [
    {"compound": "Nc1c(CC(=O)O)cccc1C(=O)c1ccc(Br)cc1", "note": "[Bromfenac diethylamine salt, bromfenac diethylamine salt]", "values": [
      {"measurement": "Concentration in muscle tissue", "setting": "[1]; 0 hours (before administration)", "result": 0, "unit": "ng/mL"},
      {"measurement": "Concentration in muscle tissue", "setting": "[1]; 2 hours after administration of 1 g preparation on back skin", "result": 1092.1, "unit": "ng/mL"},
      {"measurement": "Concentration in muscle tissue", "setting": "[1]; 4 hours after administration of 1 g preparation on back skin", "result": 2657.6, "unit": "ng/mL"},
      {"measurement": "Concentration in muscle tissue", "setting": "[1]; 6 hours after administration of 1 g preparation on back skin", "result": 1803.7, "unit": "ng/mL"},
      {"measurement": "Concentration in muscle tissue", "setting": "[1]; 8 hours after administration of 1 g preparation on back skin", "result": 1108.3, "unit": "ng/mL"},
      {"measurement": "Concentration in muscle tissue", "setting": "[1]; 10 hours after administration of 1 g preparation on back skin", "result": 262.4, "unit": "ng/mL"},
      {"measurement": "time at which distribution in tissue reaches maximum values (peak concentrations)", "setting": "[1]", "result": 2, "unit": "h"},
      {"measurement": "concentration distributed in tissue compared with bromfenac sodium", "setting": "[1]", "result": "significantly greater"},
      {"measurement": "content (HPLC), solid state", "setting": "[2]; 60° C., 1 week", "result": 99.5, "unit": "%"},
      {"measurement": "content (HPLC), solid state", "setting": "[2]; 60° C., 2 weeks", "result": 99.3, "unit": "%"},
      {"measurement": "content (HPLC), solid state", "setting": "[2]; 60° C., 3 weeks", "result": 99.2, "unit": "%"},
      {"measurement": "content (HPLC), solid state", "setting": "[2]; Initial", "result": 99.5, "unit": "%"},
      {"measurement": "change of content in accelerated test at 60° C.", "setting": "[2]", "result": "no significant substantial change"}
    ]},
    {"compound": "Nc1c(CC(=O)[O-])cccc1C(=O)c1ccc(Br)cc1.[Na+]", "note": "[Bromfenac sodium, 2-amino-3-(4-bromobenzoyl)phenylacetic acid sodium salt sesquialter hydrate, reference compound]", "values": [
      {"measurement": "time at which distribution in tissue reaches maximum values (peak concentrations)", "setting": "[1]", "result": 2, "unit": "h"},
      {"measurement": "concentration at 0 h", "setting": "[1]; in vivo, 0 hours (before administration)", "result": 0, "unit": "ng/mL"},
      {"measurement": "concentration at 2 h", "setting": "[1]; in vivo, 2 hours after administration of 1 g preparation on back skin", "result": 238, "unit": "ng/mL"},
      {"measurement": "concentration at 4 h", "setting": "[1]; in vivo, 4 hours after administration of 1 g preparation on back skin", "result": 693, "unit": "ng/mL"},
      {"measurement": "concentration at 6 h", "setting": "[1]; in vivo, 6 hours after administration of 1 g preparation on back skin", "result": 509, "unit": "ng/mL"},
      {"measurement": "concentration at 8 h", "setting": "[1]; in vivo, 8 hours after administration of 1 g preparation on back skin", "result": 313, "unit": "ng/mL"},
      {"measurement": "concentration at 10 h", "setting": "[1]; in vivo, 10 hours after administration of 1 g preparation on back skin", "result": 130, "unit": "ng/mL"},
      {"measurement": "content (HPLC), solid state", "setting": "[2]; 60° C., 1 week", "result": 99.5, "unit": "%"},
      {"measurement": "content (HPLC), solid state", "setting": "[2]; 60° C., 2 weeks", "result": 99.3, "unit": "%"},
      {"measurement": "content (HPLC), solid state", "setting": "[2]; 60° C., 3 weeks", "result": 99.1, "unit": "%"},
      {"measurement": "content (HPLC), solid state", "setting": "[2]; Initial", "result": 99.6, "unit": "%"},
      {"measurement": "change of content in accelerated test at 60° C.", "setting": "[2]", "result": "no significant substantial change"},
      {"measurement": "potency relative to other non-steroid anti-inflammatory agents", "setting": "[3]", "result": 10, "unit": "times"},
      {"measurement": "solubility", "setting": "[4]; 0.1M hydrochloric acid solution", "result": "almost insoluble"},
      {"measurement": "solubility", "setting": "[4]; acetone", "result": "almost insoluble"},
      {"measurement": "solubility", "setting": "[4]; acetonitrile", "result": "almost insoluble"},
      {"measurement": "solubility", "setting": "[4]; ethanol", "result": "slight soluble"},
      {"measurement": "solubility", "setting": "[4]; methanol", "result": "soluble"},
      {"measurement": "solubility", "setting": "[4]; water", "result": "soluble"}
    ]},
    {"compound": "Nc1c(CC(=O)O)cccc1C(=O)c1ccc(Br)cc1", "note": "[Bromfenac trometamol salt, bromfenac trometamol salt]", "values": [
      {"measurement": "time at which distribution in tissue reaches maximum values (peak concentrations)", "setting": "[1]", "result": 2, "unit": "h"},
      {"measurement": "concentration distributed in tissue compared with bromfenac sodium", "setting": "[1]", "result": "significantly greater"},
      {"measurement": "concentration at 0 h", "setting": "[1]; muscle tissue under skin of administration site, topical, 0 hours (before administration)", "result": 0, "unit": "ng/mL"},
      {"measurement": "concentration at 2 h", "setting": "[1]; muscle tissue under skin of administration site, topical, 2 hours after administration of 1 g preparation on back skin", "result": 852, "unit": "ng/mL"},
      {"measurement": "concentration at 4 h", "setting": "[1]; muscle tissue under skin of administration site, topical, 4 hours after administration of 1 g preparation on back skin", "result": 1490, "unit": "ng/mL"},
      {"measurement": "concentration at 6 h", "setting": "[1]; muscle tissue under skin of administration site, topical, 6 hours after administration of 1 g preparation on back skin", "result": 1100, "unit": "ng/mL"},
      {"measurement": "concentration at 8 h", "setting": "[1]; muscle tissue under skin of administration site, topical, 8 hours after administration of 1 g preparation on back skin", "result": 790, "unit": "ng/mL"},
      {"measurement": "concentration at 10 h", "setting": "[1]; muscle tissue under skin of administration site, topical, 10 hours after administration of 1 g preparation on back skin", "result": 201, "unit": "ng/mL"},
      {"measurement": "content (HPLC), solid state", "setting": "[2]; 60° C., 2 weeks", "result": 99.4, "unit": "%"},
      {"measurement": "content (HPLC), solid state", "setting": "[2]; 60° C., 3 weeks", "result": 99.2, "unit": "%"},
      {"measurement": "change of content in accelerated test at 60° C.", "setting": "[2]", "result": "no significant substantial change"}
    ]}
  ]
}
